The record followed here is patent US20250127801A1, “BRIDGED TRICYCLIC CARBAMOYLPYRIDONE COMPOUNDS AND USES THEREOF” (priority 2023, published 2025).

One data set in a line: physchem. The conditions noted are these: 23 °C, thermodynamic from solid; for solubility thermodynamic: fassif.
In another data set the test system is HIV-1 (IIIB). In words: microbe, parasite or virus in culture. In kind it is cell-based.
Another data set is described as follows: in vitro. To be noted: human; for CC50 at 5 days: uninfected MT-4 cells.
Where [1] appears, read: Human immunodeficiency virus 1, IIIB, MT4, 120 h, read-out: MT4 EC50 (nM).
Setting [2] is: Human immunodeficiency virus 1, MT4, 120 h, HIV-1 (IIIB) replication in MT-4 cells, 5 days incubation, Cell Titer Glo, read-out: MT4 EC50.

Converted amounts (≈) assume the structure as drawn. Like-named read-outs stand apart in the source and are kept apart here. Where only a bound is given, the exact number is not on record here.

The term solubility (thermodynamic) denotes the concentration in solution at equilibrium with solid. What is called EC50 is the midpoint of the concentration-response curve.

In “physchem”, `CC1=NO[C@@]2(CC[C@H](C)N3C[C@H]2n2cc(C(=O)NCc4ccc(F)cc4F)c(=O)c(OC(=O)OCc4ccccc4OP(=O)(O)O)c2C3=O)C1` [Compound 32, (3′S,5S,7′R)-10′-((2,4-difluorobenzyl)carbamoyl)-3,3′-dimethyl-1′,11′-dioxo-1′,4′,5′,11′-tetrahydro-3′H,4H,7′H-spiro[isoxazole-5,6′-[2,7]methanopyrido[1,2-a][1,4]diazonin]-12′-yl (2-(phosphonooxy)benzyl) carbonate] showed a solubility (thermodynamic) of 1330 µg/mL (≈ 1.86 mM).
Turning to `CC1=NO[C@@]2(CC[C@H](C)N3C[C@H]2n2cc(C(=O)NCc4ccc(F)cc4F)c(=O)c(OC(=O)N(C)c4ncc(C(=O)O)cc4COP(=O)(O)O)c2C3=O)C1` [Compound 4, 6-(((((3′S,5S,7′R)-10′-((2,4-difluorobenzyl)carbamoyl)-3,3′-dimethyl-1′,11′-dioxo-1′,4′,5′,11′-tetrahydro-3′H,4H,7′H-spiro[isoxazole-5,6′-[2,7]methanopyrido[1,2-a][1,4]diazonin]-12′-yl)oxy)carbonyl)(methyl)amino)-5-((phosphonooxy)methyl)nicotinic acid], in the data set on HIV-1 (IIIB) (setting [1]), the EC50 is 14.8 nM. The compound further returned a CC50 in the data set “in vitro” of at least 50000 nM. For the same compound, the solubility (thermodynamic) in “physchem” came to 4800 µg/mL (≈ 6.2 mM).
On to `COC1=NO[C@@]2(CC[C@H](C)N3C[C@H]2n2cc(C(=O)NCc4ccc(F)cc4F)c(=O)c(OCOC(=O)OCC4(COP(=O)(O)O)CCC4)c2C3=O)C1` [Compound 48, (((3′S,5S,7′R)-10′-((2,4-difluorobenzyl)carbamoyl)-3-methoxy-3′-methyl-1′,11′-dioxo-1′,4′,5′,11′-tetrahydro-3′H,4H,7′H-spiro[isoxazole-5,6′-[2,7]methanopyrido[1,2-a][1,4]diazonin]-12′-yl)oxy)methyl ((1-((phosphonooxy)methyl)cyclobutyl)methyl) carbonate], for which the EC50 in the data set on HIV-1 (IIIB) (setting [2]) stood at 3.82 nM. This compound showed a CC50 at 5 days in “in vitro” of 15700 nM. The compound further gave a solubility (thermodynamic) at 24 h in the data set “physchem” (FaSSIF) of 4920 µg/mL (≈ 6.51 mM).
`CC1=NO[C@@]2(CC[C@H](C)N3C[C@H]2n2cc(C(=O)NCc4ccc(F)cc4F)c(=O)c(OCOC(=O)N(C)Cc4ccc(C(=O)O)cc4OP(=O)(O)O)c2C3=O)C1` [Compound 74, 4-(((((((3′S,5S,7′R)-10′-((2,4-difluorobenzyl)carbamoyl)-3,3′-dimethyl-1′,11′-dioxo-1′,4′,5′,11′-tetrahydro-3′H,4H,7′H-spiro[isoxazole-5,6′-[2,7]methanopyrido[1,2-a][1,4]diazonin]-12′-yl)oxy)methoxy)carbonyl)(methyl)amino)methyl)-3-(phosphonooxy)benzoic acid]: in the data set with HIV-1 (IIIB) (setting [1]), the concentration giving a half-maximal response (EC50) amounted to 6.61 nM. In addition, the CC50 in the data set “in vitro” turned out to be 29400 nM. In addition, the thermodynamic solubility in the data set “physchem” is 4860 µg/mL (≈ 6.05 mM).
Take `COC1=NO[C@@]2(CC[C@H](C)N3C[C@H]2n2cc(C(=O)NCc4ccc(F)cc4F)c(=O)c(OCOC(=O)CC(C)(C)c4c(CC(=O)O)cc(C)cc4OP(=O)(O)O)c2C3=O)C1` [Compound 21, 2-(2-(4-((((3′S,5S,7′R)-10′-((2,4-difluorobenzyl)carbamoyl)-3-methoxy-3′-methyl-1′,11′-dioxo-1′,4′,5′,11′-tetrahydro-3′H,4H,7′H-spiro[isoxazole-5,6′-[2,7]methanopyrido[1,2-a][1,4]diazonin]-12′-yl)oxy)methoxy)-2-methyl-4-oxobutan-2-yl)-5-methyl-3-(phosphonooxy)phenyl)acetic acid]: the half-maximal effective concentration (EC50) in the data set with HIV-1 (IIIB) (setting [1]) is 2.54 nM. The compound also gave a CC50 in “in vitro” of 12600 nM.
In the case of `CCCCCCCCCCCCCC(=O)Oc1ccc(CC(=O)Oc2c3n(cc(C(=O)NCc4ccc(F)cc4F)c2=O)[C@@H]2CN(C3=O)[C@@H](C)CC[C@]23CC(OC)=NO3)cc1` [Compound 95, [4-[2-[(1R,10S,13S)-4-[(2,4-difluorophenyl)methylcarbamoyl]-3′-methoxy-10-methyl-5,8-dioxo-spiro[2,9-diazatricyclo[7.4.1.02,7]tetradeca-3,6-diene-13,5′-4H-isoxazole]-6-yl]oxy-2-oxo-ethyl]phenyl] tetradecanoate], the EC50 in the data set with HIV-1 (IIIB) (setting [2]) is 3.49 nM. The compound also yielded a CC50 at 5 days in the data set “in vitro” of at least 50000 nM.
For `CC1=NO[C@@]2(CC[C@H](C)N3C[C@H]2n2cc(C(=O)NCc4ccc(F)cc4F)c(=O)c(OCOC(=O)OC[C@@H]4CCCC[C@@H]4OP(=O)(O)O)c2C3=O)C1` [Compound 52, (((3′S,5S,7′R)-10′-((2,4-difluorobenzyl)carbamoyl)-3,3′-dimethyl-1′,11′-dioxo-1′,4′,5′,11′-tetrahydro-3′H,4H,7′H-spiro[isoxazole-5,6′-[2,7]methanopyrido[1,2-a][1,4]diazonin]-12′-yl)oxy)methyl (((1S,2S)-2-(phosphonooxy)cyclohexyl)methyl) carbonate], the EC50 in the data set on HIV-1 (IIIB) (setting [2]) came to 1.47 nM. The CC50 at 5 days in “in vitro” is 13000 nM.
Consider `CC1=NO[C@@]2(CC[C@H](C)N3C[C@H]2n2cc(C(=O)NCc4ccc(F)cc4F)c(=O)c(OCOC(=O)CC(C)(C)c4c(CC(=O)N[C@@H](CCC(=O)O)C(=O)O)cc(C)cc4OP(=O)(O)O)c2C3=O)C1` [Compound 42, (2-(2-(4-((((3′S,5S,7′R)-10′-((2,4-difluorobenzyl)carbamoyl)-3,3′-dimethyl-1′,11′-dioxo-1′,4′,5′,11′-tetrahydro-3′H,4H,7′H-spiro[isoxazole-5,6′-[2,7]methanopyrido[1,2-a][1,4]diazonin]-12′-yl)oxy)methoxy)-2-methyl-4-oxobutan-2-yl)-5-methyl-3-(phosphonooxy)phenyl)acetyl)-L-glutamic acid], for which the EC50 with HIV-1 (IIIB) (setting [1]) was determined as 1.9 nM. The CC50 in “in vitro” came to 15700 nM.
As for `COC1=NO[C@@]2(CC[C@H](C)N3C[C@H]2n2cc(C(=O)NCc4ccc(F)cc4F)c(=O)c(OCOC(=O)N(C)C[C@@H]4CCCN4C(=O)OCOP(=O)(O)O)c2C3=O)C1` [Compound 16, (phosphonooxy)methyl (2S)-2-(((((((3′S,5S,7′R)-10′-((2,4-difluorobenzyl)carbamoyl)-3-methoxy-3′-methyl-1′,11′-dioxo-1′,4′,5′,11′-tetrahydro-3′H,4H,7′H-spiro[isoxazole-5,6′-[2,7]methanopyrido[1,2-a][1,4]diazonin]-12′-yl)oxy)methoxy)carbonyl)(methyl)amino)methyl)pyrrolidine-1-carboxylate], the concentration for a half-maximal effect (EC50) in the data set on HIV-1 (IIIB) (setting [2]) was found to be 2.93 nM. Besides, in the data set “in vitro”, the CC50 at 5 days turned out to be 16000 nM.
Consider `CC1=NO[C@@]2(CC[C@H](C)N3C[C@H]2n2cc(C(=O)NCc4ccc(F)cc4F)c(=O)c(OCOC(=O)O[C@@H]4CCCC[C@@H]4OP(=O)(O)O)c2C3=O)C1` [Compound 50, (((3′S,5S,7′R)-10′-((2,4-difluorobenzyl)carbamoyl)-3,3′-dimethyl-1′,11′-dioxo-1′,4′,5′,11′-tetrahydro-3′H,4H,7′H-spiro[isoxazole-5,6′-[2,7]methanopyrido[1,2-a][1,4]diazonin]-12′-yl)oxy)methyl ((1R,2S)-2-(phosphonooxy)cyclohexyl) carbonate], for which the EC50 in the data set with HIV-1 (IIIB) (setting [2]) was determined as 1.69 nM. In the data set “in vitro”, this compound gave a CC50 at 5 days of 21600 nM.
Regarding `COC1=NO[C@@]2(CC[C@H](C)N3C[C@H]2n2cc(C(=O)NCc4ccc(F)cc4F)c(=O)c(OC(=O)Cc4ccc(OP(=O)(O)O)cc4)c2C3=O)C1` [Compound 29, (3′S,5S,7′R)-10′-((2,4-difluorobenzyl)carbamoyl)-3-methoxy-3′-methyl-1′,11′-dioxo-1′,4′,5′,11′-tetrahydro-3′H,4H,7′H-spiro[isoxazole-5,6′-[2,7]methanopyrido[1,2-a][1,4]diazonin]-12′-yl 2-(4-(phosphonooxy)phenyl)acetate], the EC50 with HIV-1 (IIIB) (setting [1]) came to 2.01 nM. In addition, the CC50 in “in vitro” worked out at 27800 nM.
